Measured values published in patent US8741338B2, “Targeted delivery to human diseases and disorders” (Universidade de Coimbra, priority 2008, dated 2014).

Legend:
HMEC-1 cells = experiment: MTT proliferation assay, cytotoxicity of DXR formulations; type: cell-based; conditions: Homo sapiens, total 96 h
Description: (§1) In vitro cytotoxicity of free doxorubicin (DXR) and DXR-containing liposomes was determined for […] and HMEC-1 cells using the MTT (3-(4,5-Dimethylthiazol-2-yl)-2,5-diphenyltetrazolium bromide) proliferation assay (Mosmann, 1983). Briefly, cells were plated in 96-well plates at a density of 8,000 cells per well and incubated with free DXR, non-targeted pH-sensitive (or non-pH-sensitve) liposomes containing DXR or targeted pH-sensitive (or non-pH-sensitve) liposomes containing DXR. Additional controls included free peptide and empty targeted liposomes. Cells were incubated for 1, 3, 24 and 48 h at 37° C. in an atmosphere of 95% humidity and 5% CO2. At the end of the incubation time, cells were gently washed twice with cold PBS to remove DXR and maintained in fresh medium for a total of 96 h. After incubation, the medium was replaced by a solution of 0.5 mg/ml MTT and the cells were further incubated for 4 h at 37° C. in an atmosphere of 95% humidity and 5% CO2. Crystals were dissolved in acidic isopropanol and absorbance in each well was read at 570 nm in a microplate reader (Multiscan EX—Thermo Electron Corporation). IC50 of DXR mediated by the different formulations was determined from the dose/response curves.

MDA-MB-435S cells = experiment: as above; type: cell-based; conditions: Homo sapiens, total 96 h
Description: as §1

Work on COc1cccc2c1C(=O)c1c(O)c3c(c(O)c1C2=O)C[C@@](O)(C(=O)CO)C[C@@H]3O[C@H]1C[C@H](N)[C@H](O)[C@H](C)O1 [DXR, Doxorubicin] yielded an IC50 (HMEC-1 cells; HMEC-1, HMEC-1, 1 h incubation with drug) of 434 ± 30 nM, an IC50 (HMEC-1 cells; HMEC-1, HMEC-1, 3 h incubation with drug) of 401 ± 59 nM and an IC50 (HMEC-1 cells; HMEC-1, HMEC-1, 24 h incubation with drug) of 72 ± 10 nM. It also gave an IC50 (HMEC-1 cells; HMEC-1, HMEC-1, 48 h incubation with drug) of 58 ± 8 nM, an IC50 (MDA-MB-435S cells; 1 h incubation with drug) of 1610 ± 460 nM and an IC50 (MDA-MB-435S cells; 3 h incubation with drug) of 1450 ± 270 nM. The IC50 (MDA-MB-435S cells; 24 h incubation with drug) was 232 ± 45 nM and the IC50 (MDA-MB-435S cells; 48 h incubation with drug) was 113 ± 78 nM.
